Legend:
ClpP (HEK293T cells) = assay: ClpP protein level, western blot, HEK293T cells; format: cell-based; details: WT or A53T αSyn overexpression; 30 min pretreatment; n = 4–5 (CS1: n = 4)
[1] = test system: A53T-αSyn iPSC-derived neurons; assay: Mitochondrial function (Mito-SOX, TMRM, ATP) in A53T-αSyn iPSC-derived neurons; format: cell-based, human
Description: PD iPS cells lines (αSyn A53T, NN0004337, donor) and its isogenic corrected control line (NN0004344) were obtained from RUCDR Infinite Biologics. The iPS cells were differentiated into dopaminergic neuron-enriched neuronal culture with the protocol described previously. Briefly, iPS cell colonies were disassociated with accutase (Invitrogen), plated onto 6-well plates pre-coated with 2.5% Matrigel (BD Biosciences) and allowed to reach 80% confluence in mTeSR medium (Stem Cell Technology). For the first 10 days, cells were treated with SB431542 (10 µM; Tocris Bioscience) and Noggin (100 ng/ml) in Neural Media (NM) with FGF2 ([…]) and EGF ([…]). NM media contained: Neurobasal and DMEM/F12 (1:1), B-27 Supplement Minus Vitamin A (50×, Invitrogen), N2 Supplement (100X, Invitrogen), GlutaMAX (Invitrogen, 100×), 100 units/ml penicillin and 100 µg/ml streptomycin (Fisher); for the next 4 days, cells were treated with human recombinant Sonic hedgehog (SHH, 200 ng/ml) in neuronal differentiation medium. […]
Cells cultured on coverslips or 24-well plates were washed with DPBS and then incubated with 5 µM Mito-SOX™ Red (Invitrogen, M36008), a mitochondrial superoxide indicator, for 10 min at 37 °C. For cells cultured on coverslips, the images were visualized by microscope, and quantification of images was then carried out using NIH ImageJ software. At least 100 cells per group were counted in the analysis.
Cells cultured on coverslips or 24-well plates were washed with DPBS and then incubated with 0.25 µM Tetramethylrhodamine, methyl ester (TMRM) (Invitrogen, T668), for 20 min at 37 °C. For cells cultured on coverslips, the images were visualized by microscope, and quantification of images was then carried out using NIH Fiji ImageJ software. At least 100 cells per group were counted in the analysis.
Cells were seeded in 24-well plates, followed by the indicated treatment. The ATP level in each well was determined using the ATP assay kit according to the manufacturer’s procedures (Cayman Chemical, 700410).

[2] = test system: mThy1-hSNCA mice (substantia nigra / midbrain); assay: Brain immunostaining / immunohistochemistry in mThy1-hSNCA mice; format: in vivo, mouse; details: 3 mg/kg/day s.c.
Description: C57BL/6 N-Tg (Thy1-SNCA)15Mjff/J (JAX: 017682) breeders (C57Bl/6NJ genetic background) were purchased from Jackson Laboratories. The mice were mated, bred, and genotyped in the animal facility of Case Western Reserve University. All mice were maintained at a 12-hour light/dark cycle (on 6 am, off 6 pm). All randomization and peptide treatments in mThy1-hSNCA mice were prepared by an experimenter not associated with the behavioral and neuropathology analysis. Only male mice were used in the study. mThy1-hSNCA transgenic mice and their age-matched WT littermates were implanted with a 28-day subcutaneous osmotic pump (Alzet, Cupertino CA, Model 2004) containing either TAT control peptide or CS2 peptide, which delivered the peptides at indicated rate (1 or 3 or 10 mg/kg/day). The pump was replaced once every four weeks. All mice were sacrificed at age of 10-month for neuropathology assessment.
For immunofluorescence staining of mouse brain sections, mice were deeply anesthetized and transcardially perfused with 4% paraformaldehyde in PBS. Brain sections were washed in PBS 3 times and subjected for antigen retrieval in 0.01 M sodium citrate buffer with 0.05% TWEEN-20, followed by permeation with 0.2% Triton X-100 in PBS at room temperature for 10 min. Sections were then blocked with 10% normal goat serum in PBS and incubated with primary antibodies overnight at 4 °C and then stained with secondary antibodies. Images of the staining were acquired using Fluoview (FV3000) confocal microscope (Olympus).
Frozen brain sections (20 μm, coronal) were washed in PBS 3 times and subjected for antigen retrieval in 0.01 M sodium citrate buffer with 0.05% TWEEN-20. After washing 3 times in TBS, sections were then incubated in 3%H2O2/w methanol for 30 min at room temperature to quench endogenous peroxidase. After washing in TBS, sections were blocked in 10% normal goat serum with 1XTBST for one hour at room temperature and incubated with anti-pS129-αSyn (ab51253, clone EP1536Y, abcam) or anti- αSyn aggregates (MABN389, clone 5G4, Millipore) antibody in TBST overnight. Secondary antibody and DAB staining were provided by the IHC Select HRP/DAB kit (DAB150, Millipore). Hematoxylin QS (H-3404, Vector laboratory) was used to stain nucleus. The intensity of αSyn was conducted using Fiji ImageJ software. The same image exposure times and threshold settings were used for all sections from all treatment groups. Quantitation was performed blinded to the experimental groups.
Fig. 7 CS2 treatment is protective in mThy1-hSNCA mouse model of PD. (A) Experimental schematic of CS2 treatment in mThy1-hSNCA (Thy1) mouse model of PD: TAT or CS2 peptide was administered (3 mg/kg/day) via subcutaneous osmotic pump (O.P.) in Thy1 mice and their wild-type (WT) littermates starting from age of 4-month till 10-month. […] (D) Representative images of pS129-αSyn staining in substantia nigra of WT and Thy1 mice treated with TAT or CS2 peptide (scale bar = 100 μm). […] (G) Representative images of ClpP and tyrosine […] (TH) staining on the brain coronal sections from TAT or CS2-treated Thy1 mice and their WT littermates (scale bar = 100 μm). […] (H) Representative images of IBA1 and GFAP staining in the midbrain of TAT or CS2 treated Thy1 mice and their WT littermates (SN: substantia nigra) (scale bar = 180 μm).
(B) Representative images of αSyn aggregates staining (5G4) in substantia nigra of TAT or CS2 treated Thy1 mice (scale bar = 40µm).

[3] = midbrain, mThy1-hSNCA, n = 3 mice/group

CC(C)[C@H](NC(=O)CNC(=O)CNC(=O)CCCCCNC(=O)[C@H](CCCNC(=N)N)NC(=O)[C@H](CCCNC(=N)N)NC(=O)[C@H](CCCNC(=N)N)NC(=O)[C@H](CCC(N)=O)NC(=O)[C@H](CCCNC(=N)N)NC(=O)[C@H](CCCNC(=N)N)NC(=O)[C@H](CCCCN)NC(=O)[C@H](CCCCN)NC(=O)[C@H](CCCNC(=N)N)NC(=O)CNC(=O)[C@@H](N)Cc1ccc(O)cc1)C(=O)N[C@H](C(=O)N[C@H](C(=O)N[C@@H](C)C(=O)O)[C@@H](C)O)C(C)C [CS2, TAT-C6-GGVVTA]
ClpP protein level, HEK293T (ClpP (HEK293T cells)): significantly restored ClpP protein levels | mitochondrial ROS, iPSC neurons ([1]; Mito-SOX, n = 3): reduced mitochondrial ROS | mitochondrial membrane potential, iPSC neurons ([1]; TMRM, n = 3): rescued mitochondrial membrane potential | ATP content, iPSC neurons ([1]; n = 6): rescued mitochondrial membrane potential and ATP content | ClpP level in midbrain DA neurons ([2]; TH+ neurons, immunostaining, n = 3 mice/group): restored by CS2 | IBA1 and GFAP in WT mice ([2]; WT mice): no effect in WT mice | GFAP (astrocyte) intensity [2, 3]: significantly attenuated both markers | IBA1 (microglia) intensity [2, 3]: significantly attenuated both markers | pS129-αSyn accumulation in SN ([2]; n = 3 mice/group): reduced by CS2 treatment | αSyn aggregates in SN (5G4) ([2]; n = 3 mice/group): reduced by CS2 treatment
